What was measured:
Type in all cases: cell-based
[1] = tested on: human Pancreatic cancer cell line BXPC3; assay: Colony formation assay, pancreatic cancer cell line BXPC3; conditions: for BxPC3 Pancreatic activity: summary table / FIG. 34; for potentiation of gemcitabine (surviving colonies) / activity on their own against the pancreatic cancer cells (surviving colonies): BXPC3, FIG. 16; for potentiation of gemcitabine (surviving colonies): 2 μM inhibitor + 0.3 μg/ml gemcitabine, 18 hrs, normalized to gemcitabine; for activity on their own against the pancreatic cancer cells (surviving colonies): 2 μM inhibitor, 18 hrs treatment, colonies after 14 days, normalized to DMSO
Procedure: (§1) The human Pancreatic cancer cell line BXPC3 was plated (4000 cells per plate with a ˜10% plating efficiency) in 10 cm dishes, using 10 ml of RPMI media (always with 10% FBS) per plate, and placed in a […] incubator (5% CO2) for 24 hrs. After 24 hrs, each plate was treated with one or a combination of the following agents: DMSO (0.2% in solution), 0.3 μg/ml of gemcitabine (dissolved in 1×PBS), and/or 2 μM of each Metnase/Intnase inhibitor (dissolved in DMSO). When the DMSO, gemcitabine, and/or inhibitors were added, the plates were swirled several times to assure mixing. After the agents were added to the RPMI, the plates were put back into the incubators for 18 hrs. Following 18 hrs treatment, the media was removed and the cells were washed twice with 1×PBS. Ten ml of fresh RPMI with 10% FBS was added and the cells were placed back into the incubator for 14 days. After the incubation period that will allow surviving cells to form colonies, the media was discarded and surviving colonies were stained with methylene blue. Colonies, a reflection of a single surviving cell that expanded, were counted to measure survival. All experiments were run in triplicate. Experiments were normalized to either DMSO (black asterices) or gemcitabine (red asterices).

[2] = tested on: human myeloid cell line KG-1; assay: Leukemia cell line KG-1 growth curve, alone or with VP-16; conditions: for effect of compound alone on KG-1 growth, high dose: high (higher) dose of compound (added at 2 uM and 5 uM); for effect of compound alone on KG-1 growth, high dose / potentiation of low dose VP-16 on KG-1 growth, high dose of compound / effect of compound alone on KG-1 growth, lower/low dose / potentiation of low dose VP-16 on KG-1 growth, lower/low dose of compound: counted daily for 4 days; for potentiation of low dose VP-16 on KG-1 growth, high dose of compound: high (higher) dose of compound + VP-16 0.05 uM; for effect of compound alone on KG-1 growth, lower/low dose: lower (low) dose of compound (added at 2 uM and 5 uM); for potentiation of low dose VP-16 on KG-1 growth, lower/low dose of compound: lower (low) dose of compound + VP-16 0.05 uM; for KG-1 Leukemia potency / KG-1 Leukemia cooperativity with VP-16: summary table / FIG. 34
Procedure: (§2) The human myeloid cell line KG-1 was grown in RPMI1640 with 10% FBS. The small cell lung cancer cell line CRL5898 was grown in HITES medium (Dulbecco's medium: Ham's F12, 50:50 mix, Insulin 0.005 mg/ml Transferrin 0.01 mg/ml Sodium selenite 30 nM Hydrocortisone 10 nM beta-estradiol 10 nM HEPES 10 mM L-glutamine 2 mM (in addition to that in the base medium)). Both cell lines were seeded at 10,000 cells/ml in the appropriate medium in 6 well plates. The Chem Div compounds were resuspended as 5 mM stock solutions in DMSO. The Chem Div compounds were added alone at 2 uM and 5 uM or in combination with VP-16 (also called etoposide) at 0.05 uM. DMSO was added to the control wells. Cells were plated and treated in triplicate and counted daily for 4 days.

cancer cells = assay: Summary statements: cytotoxicity for cancer cells alone and with chemotherapy; conditions: summary statement referring to figures
Procedure: as §1
(§3) The human colon cancer cell line SW48 was plated (1000 cells per plate with a ˜20% plating efficiency) in 10 cm dishes, using 10 ml of DMEM media (always with 10% FBS) per plate, and placed in a […] incubator (5% CO2) for 24 hrs. After 24 hr, each plate was treated with one or a combination of the following agents: DMSO (0.2% in solution), 3 μM 5-fluorouracil (5FU, dissolved in 1×PBS), and/or 2 μM of each Metnase/intnase inhibitor (dissolved in DMSO). When the DMSO, 5FU, and/or inhibitors were added, the plates were swirled several times to assure mixing. After agents were added to the DMEM, the plates were put back into the incubators for 18 hr. Following 18 hr treatment, the media was removed and the cells were washed twice with 1×PBS. Ten milliliters of fresh DMEM was added and the cells were placed back into the incubator for 7-14 days. After the incubation period that will allow surviving cells to grow and form colonies, media was discarded and surviving colonies were stained with methylene blue. Colonies, a reflection of a single surviving cell that expanded, were counted to measure survival. All experiments were run in triplicate. Experiments were normalized to either DMSO (black asterices) or 5FU (red asterices).
as §2

[3] = tested on: small cell lung cancer cell line CRL5898; assay: Small cell lung cancer cell line CRL5898 growth, alone or with VP-16; conditions: for CLR5898 Small Cell Lung Cancer cooperativity with VP-16 / CLR5898 Small Cell Lung Cancer potency: summary table / FIG. 34
Procedure: as §2

[4] = tested on: human colon cancer cell line SW48; assay: Colony formation assay, colon cancer cell line SW48; conditions: FIG. 17; for activity on their own against the colon cancer cells (surviving colonies): 2 μM inhibitor, 18 hr treatment, colonies after 7-14 days, normalized to DMSO
Procedure: as §3

CCn1cc(C(C)=O)c(=O)c2cc(F)c(N3CCN(C(=O)c4ccc(Cl)cc4)CC3)cc21 [5076-4170]
BxPC3 Pancreatic activity [1]: inactive
effect of compound alone on KG-1 growth, high dose [2]: slowed the growth of the leukemia cell line KG-1 and caused cell death with prolonged treatment
potentiation of low dose VP-16 on KG-1 growth, high dose of compound [2]: some potentiation on the anti-proliferative effect of low dose VP-16
effect of compound alone on KG-1 growth, lower/low dose [2]: slowed the growth of the leukemia cell line KG-1 and caused cell death with prolonged treatment
potentiation of low dose VP-16 on KG-1 growth, lower/low dose of compound [2]: some potentiation on the anti-proliferative effect of low dose VP-16
KG-1 Leukemia potency [2]: High potency, probably below 1 uM.
cytotoxicity for cancer cells with chemotherapy agents (potentiation) (cancer cells): increased the cytotoxicity of chemotherapy when added
cytotoxicity for cancer cells, compound alone (cancer cells): cytotxoic for cancer cells alone

CCn1cc(C(=O)O)c(=O)c2cc(F)c(N3CCN(C(=O)c4ccc(OC(C)=O)cc4)CC3)cc21 [5082-2438]
BxPC3 Pancreatic activity [1]: weak
effect of compound alone on KG-1 growth, high dose [2]: decreased KG-1 leukemia cell growth, similar to low dose VP-16 alone
potentiation of low dose VP-16 on KG-1 growth, high dose of compound [2]: potentiated the anti-proliferative effect of low dose VP-16 and prolonged treatment resulted in cell death
effect of compound alone on KG-1 growth, lower/low dose [2]: decreased KG-1 leukemia cell growth, similar to low dose VP-16 alone
potentiation of low dose VP-16 on KG-1 growth, lower/low dose of compound [2]: potentiated the effect of low dose VP-16 and prolonged treatment resulted in cell death
KG-1 Leukemia cooperativity with VP-16 [2]: Cooperativity with VP-16
KG-1 Leukemia potency [2]: Potency in uM
CLR5898 Small Cell Lung Cancer cooperativity with VP-16 [3]: No or very
CLR5898 Small Cell Lung Cancer potency [3]: Potency in uM
cytotoxicity for cancer cells with chemotherapy agents (potentiation) (cancer cells): increased the cytotoxicity of chemotherapy when added
cytotoxicity for cancer cells, compound alone (cancer cells): cytotxoic for cancer cells alone

CC(C)n1cc(C(=O)O)c(=O)c2ccccc21 [5483-0023]
potentiation of gemcitabine (surviving colonies) [1]: potentiate gemcitabine
activity on their own against the pancreatic cancer cells (surviving colonies) [1]: activity on their own
BxPC3 Pancreatic activity [1]: Active
potentiation of 5FU (surviving colonies) ([4]; 2 μM inhibitor + 3 μM 5-fluorouracil, 18 hr, normalized to 5FU): potentiate 5FU
activity on their own against the colon cancer cells (surviving colonies) [4]: activity on their own
effect of compound alone on KG-1 growth, high dose [2]: decreased KG-1 leukemia cell growth especially with longer treatment
potentiation of low dose VP-16 on KG-1 growth, high dose of compound [2]: potentiated the anti-proliferative effect of low dose VP-16
effect of compound alone on KG-1 growth, lower/low dose [2]: decreased KG-1 leukemia cell growth, similar to low dose VP-16
potentiation of low dose VP-16 on KG-1 growth, lower/low dose of compound [2]: potentiated the anti-proliferative effect of low dose VP-16
KG-1 Leukemia cooperativity with VP-16 [2]: Cooperativity with VP-16
KG-1 Leukemia potency [2]: Potency in uM
CLR5898 Small Cell Lung Cancer cooperativity with VP-16 [3]: No or very
CLR5898 Small Cell Lung Cancer potency [3]: Potency in uM
cytotoxicity for cancer cells with chemotherapy agents (potentiation) (cancer cells): increased the cytotoxicity of chemotherapy when added
cytotoxicity for cancer cells, compound alone (cancer cells): cytotxoic for cancer cells alone

Cc1ccc(NCC(=O)Nc2cccc(C(=O)O)c2O)cc1 [8017-3379]
BxPC3 Pancreatic activity [1]: inactive
effect of compound alone on KG-1 growth, high dose [2]: inhibited KG-1 leukemia cell growth even more than low dose VP-16 alone
potentiation of low dose VP-16 on KG-1 growth, high dose of compound [2]: no potentiation on the effect of low dose VP-16
effect of compound alone on KG-1 growth, lower/low dose [2]: inhibited KG-1 leukemia cell growth even more than low dose VP-16 alone
potentiation of low dose VP-16 on KG-1 growth, lower/low dose of compound [2]: no potentiation on the effect of low dose VP-16
KG-1 Leukemia cooperativity with VP-16 [2]: No or very weak
KG-1 Leukemia potency [2]: Potency in uM
potentiation of low dose VP-16 on CRL5898 cell growth ([3]; FIG. 33): some potentiation of the anti-proliferative effect of low dose VP-16
effect of compound alone on CRL5898 cell growth ([3]; FIG. 33, compared with low dose VP-16): inhibited cell growth of the small cell lung cancer cell line CRL5898, the same as low dose VP-16
CLR5898 Small Cell Lung Cancer cooperativity with VP-16 [3]: No or very
CLR5898 Small Cell Lung Cancer potency [3]: Potency in uM
cytotoxicity for cancer cells, compound alone (cancer cells): cytotxoic for cancer cells alone

O=C(O)c1ccc(N2C(=O)Nc3ccccc3N2O)cc1O [D0045-0007]
potentiation of gemcitabine (surviving colonies) [1]: potentiate gemcitabine
activity on their own against the pancreatic cancer cells (surviving colonies) [1]: activity on their own
activity on their own against the colon cancer cells (surviving colonies) [4]: activity on their own
effect of compound alone on KG-1 growth, lower/low dose [2]: decreased KG-1 leukemia cell growth compared to control
potentiation of low dose VP-16 on KG-1 growth, lower/low dose of compound [2]: potentiated the anti-proliferative effect of low dose VP-16
cytotoxicity for cancer cells with chemotherapy agents (potentiation) (cancer cells): increased the cytotoxicity of chemotherapy when added
cytotoxicity for cancer cells, compound alone (cancer cells): cytotxoic for cancer cells alone

COc1ccc(Cn2c(C)c(CNC(C)c3ccccc3)c(C(=O)O)c2C)cc1 (stereo not drawn) [G396-1171]
BxPC3 Pancreatic activity [1]: inactive
effect of compound alone on KG-1 growth, high dose [2]: decreasedKG-1 leukemia cell growth, similar to low dose VP-16 alone
potentiation of low dose VP-16 on KG-1 growth, high dose of compound [2]: potentiated the anti-proliferative effect of low dose VP-16
effect of compound alone on KG-1 growth, lower/low dose [2]: decreased KG-1 leukemia cell growth, similar to low dose VP-16 alone
potentiation of low dose VP-16 on KG-1 growth, lower/low dose of compound [2]: potentiated the anti-proliferative effect of low dose VP-16
KG-1 Leukemia cooperativity with VP-16 [2]: Cooperativity with VP-16
KG-1 Leukemia potency [2]: Potency in uM
CLR5898 Small Cell Lung Cancer cooperativity with VP-16 [3]: No
CLR5898 Small Cell Lung Cancer potency [3]: Potency in uM
cytotoxicity for cancer cells with chemotherapy agents (potentiation) (cancer cells): increased the cytotoxicity of chemotherapy when added
cytotoxicity for cancer cells, compound alone (cancer cells): cytotxoic for cancer cells alone

O=C(O)c1cc(=O)c2ccccc2o1 [R092-0025]
potentiation of gemcitabine (surviving colonies) [1]: potentiate gemcitabine
activity on their own against the pancreatic cancer cells (surviving colonies) [1]: activity on their own
activity on their own against the colon cancer cells (surviving colonies) [4]: activity on their own
cytotoxicity for cancer cells with chemotherapy agents (potentiation) (cancer cells): increased the cytotoxicity of chemotherapy when added
cytotoxicity for cancer cells, compound alone (cancer cells): cytotxoic for cancer cells alone

Reference: US20120093917A1, “METNASE AND INTNASE INHIBITORS AND THEIR USE IN TREATING CANCER” (priority 2009, published 2012)
